Measured values: paper PMC8155022 (Scientific Reports, 2021)
Read-outs that look alike come from different tables or passages of the source.

Key:
human whole blood = experiment: in vitro whole blood assay, IL-17A production; type: cell-based; conditions: human whole blood diluted 1:1; read-out: IC50, inhibition of IL-17A production
cSRC(h) = molecular target: T1, cSRC(h) (Homo sapiens, UniProt P12931); experiment: Kinase panel; type: biochemical
T1 construct: purchased Cerep (receptors, ion channels, transporters); Eurofins Panlabs (kinases)
Experimental: (§2) Kinase selectivity was conducted by Eurofins Panlabs Inc (St Charles, MO).

[1] = phase 1 single ascending dose study, pharmacokinetics; type: in vivo, human; conditions: for Tmax: median (range)
Experimental: Based on mean values, dose normalized overall exposure (AUC216h, AUC∞) also appeared to increase proportionally with dose.
Informed consent was obtained from all participants. No formal sample size and power calculations were performed.
Plasma samples with K2EDTA anticoagulant were treated with acetonitrile for protein extraction then processed with liquid chromatography coupled to tandem mass spectrometry. Reversed-phase HPLC separation was used and tandem MS/MS detection was set in TIS positive mode. […] All the data reported in sample analysis and validation met the predefined acceptance criteria and fulfilled the requirements and recommendations in the current FDA guidance for bioanalytical method validations and analysis.

MOP = MOP (Homo sapiens, UniProt P35372); experiment: GPCR panel, cAMP or calcium FLIPR assays; type: cell-based
Experimental: (§3) 28 GPCRs were evaluated through cAMP or calcium FLIPR assays[67]. A panel of 52 different receptors, ion channels and transporters was tested by Cerep, Inc. (Redmond, WA). Kinase selectivity was conducted by Eurofins Panlabs Inc (St Charles, MO).

V1A = V1A (Homo sapiens, UniProt P37288); experiment: GPCR panel, cAMP or calcium FLIPR assays; type: cell-based
Experimental: as §3

[2] = modeled plasma exposure in the CIA model; type: in vivo, mouse
PR = molecular target: T2, PR (Homo sapiens, UniProt P06401); experiment: nuclear receptor cellular GAL4 reporter assay; type: cell-based; conditions: agonist and antagonist mode; read-out: potency in agonist and antagonist mode
T2 construct: expressed in transfected cells

PKBα(h) = molecular target: T3, PKBα(h) (Homo sapiens, UniProt P31749); experiment: Kinase panel; type: biochemical
T3 construct: purchased Cerep (receptors, ion channels, transporters); Eurofins Panlabs (kinases)
Experimental: as §2

[3] = system: human CD4+ T cells under Th17 differentiation; experiment: in vitro human Th17 differentiation, cytokine production
Experimental: On day 4, supernatants were analyzed for IL-17A, IL-17F, IL-22 and IFNγ production.
Total CD4^+ T cells were isolated from peripheral blood mononuclear cells (PBMCs) of healthy donors using a CD4^+ T cell Isolation Kit II (Miltenyl Biotec, Auburn, CA), following the manufacturer’s instructions.
In vitro human Th17 and Th1 differentiation
Total CD4+ T cells were isolated from the peripheral blood mononuclear cells (PBMCs) of healthy donors
using a CD4+ T cell Isolation Kit II (Miltenyl Biotec, Auburn, CA), following the manufacturer’s
instructions. Isolated T cells were resuspended in culture medium and added to a 96-well plate at 1×105
beads (prepared using human T cell activation/expansion kit, Miltenyi Biotec) at final concentration of
3x10^6/mL, and cocktail for either Th17 differentiation (10 µg/mL anti-IL-4, 10 µg/mL anti-IFN, 10 ng/mL
IL-1β, 10 ng/mL IL-23, 50 ng/mL IL-6, 3 ng/mL TGFβ and 20 U/mL IL-2), or for Th1 differentiation (10
µg/mL anti-IL-4, 10 ng/mL IL-12, and 20 U/mL IL-2). Cells were cultured at 37°C and 5% CO2 for 3 days.
Supernatants were assayed for accumulated cytokines using MSD multi-spot assay (Meso Scale
Discovery, Rockville, MD) or R&D ELISA kit.

IGF-1R(h) = molecular target: T4, IGF-1R(h) (Homo sapiens, UniProt P08069); experiment: Kinase panel; type: biochemical
T4 construct: purchased Cerep (receptors, ion channels, transporters); Eurofins Panlabs (kinases)
Experimental: as §2

Plk3(h) = molecular target: T5, Plk3(h) (Homo sapiens, UniProt Q9H4B4); experiment: Kinase panel; type: biochemical
T5 construct: purchased Cerep (receptors, ion channels, transporters); Eurofins Panlabs (kinases)
Experimental: as §2

Pim-2(h) = molecular target: T6, Pim-2(h) (Homo sapiens, UniProt Q9P1W9); experiment: Kinase panel; type: biochemical
T6 construct: purchased Cerep (receptors, ion channels, transporters); Eurofins Panlabs (kinases)
Experimental: as §2

D2L = D2L (Homo sapiens, UniProt P14416); experiment: GPCR panel, cAMP or calcium FLIPR assays; type: cell-based
Experimental: (§4) 28 GPCRs were evaluated through cAMP or calcium FLIPR assays[67].

CDK5/p35(h) = molecular target: T7, CDK5/p35(h) (Homo sapiens, UniProt Q00535); experiment: Kinase panel; type: biochemical
T7 construct: purchased Cerep (receptors, ion channels, transporters); Eurofins Panlabs (kinases)
Experimental: as §2

[4] = 1-month GLP toxicity study in rats; type: in vivo; conditions: Sprague-Dawley, in vivo, rat; for AUC(0-t) / Cmax: po, 400 mg/kg/day; for AUC(0-t): read-out: AUC0-24 h at NOAEL; for Cmax: read-out: Cmax at NOAEL
Experimental: (§1) The type of study plan was reviewed and agreed by the Laboratory Animal Welfare Officer and the Animal Ethical Committee (officially known as Dierexperimentencommissie (DEC) Charles River Den Bosch), as required by the Dutch Act on Animal Experimentation (February 1997). Both rat and dog studies were performed in AALAC accredited Charles River Laboratories in the Netherlands. Studies in rats were conducted with 0, 25, 100, and 400 mg/kg per day (n = 10/sex/group) for 1 month. An additional 5 animals/sex in vehicle and high dose were allowed to continue for a 1-month treatment-free recovery period. Studies in dogs were conducted with 0, 3, 10, and 30 mg/kg per day (n = 4/sex/group) for 1 month. A treatment-free recovery period of 1 month (additional 2 dogs/sex/group) was included for both vehicle controls and high dose groups. […] Rats and dogs were examined for mortality, clinical signs, ophthalmoscopic changes, body weight, food consumption, hematology, clinical chemistry, anatomic pathology, and toxicokinetics. In addition, dogs were examined for electrocardiographic changes. Rats and dogs were also assessed for reversal of any effects following a 1-month recovery period. These studies were conducted in compliance with good laboratory practice (GLP) regulations.

Sprague–Dawley rats = experiment: 1-month GLP toxicity study in rats; type: in vivo; conditions: rat; recovered after 1-month recovery period
Experimental: as §1

5HT2C = 5HT2C (Homo sapiens, UniProt P28335); experiment: GPCR panel, cAMP or calcium FLIPR assays; type: cell-based
Experimental: as §4

JAK2(h) = molecular target: T8, JAK2(h) (Homo sapiens, UniProt O60674); experiment: Kinase panel; type: biochemical
T8 construct: purchased Cerep (receptors, ion channels, transporters); Eurofins Panlabs (kinases)
Experimental: as §2

M1 (h) = molecular target: T9, M1 (h) (Homo sapiens, UniProt P11229); experiment: Cerep panel; type: binding
T9 construct: purchased Cerep (receptors, ion channels, transporters); Eurofins Panlabs (kinases)
Experimental: A panel of 52 different receptors, ion channels and transporters was tested by Cerep, Inc. (Redmond, WA).

[5] = both sexes, human, plasma, po, 10 mg, 10 mg single oral dose, fasted, n=6, mean (SD)
[6] = both sexes, human, plasma, po, 30 mg, 30 mg single oral dose, fasted, n=6, mean (SD)
[7] = both sexes, human, plasma, po, 100 mg, 100 mg single oral dose, fasted, n=9, mean (SD)
[8] = both sexes, human, plasma, po, 100 mg, 100 mg single oral dose, fed, n=9, mean (SD)
[9] = both sexes, human, plasma, po, 200 mg, 200 mg single oral dose, fasted, n=6, mean (SD)

T5 sequence (Q9H4B4 whole entry): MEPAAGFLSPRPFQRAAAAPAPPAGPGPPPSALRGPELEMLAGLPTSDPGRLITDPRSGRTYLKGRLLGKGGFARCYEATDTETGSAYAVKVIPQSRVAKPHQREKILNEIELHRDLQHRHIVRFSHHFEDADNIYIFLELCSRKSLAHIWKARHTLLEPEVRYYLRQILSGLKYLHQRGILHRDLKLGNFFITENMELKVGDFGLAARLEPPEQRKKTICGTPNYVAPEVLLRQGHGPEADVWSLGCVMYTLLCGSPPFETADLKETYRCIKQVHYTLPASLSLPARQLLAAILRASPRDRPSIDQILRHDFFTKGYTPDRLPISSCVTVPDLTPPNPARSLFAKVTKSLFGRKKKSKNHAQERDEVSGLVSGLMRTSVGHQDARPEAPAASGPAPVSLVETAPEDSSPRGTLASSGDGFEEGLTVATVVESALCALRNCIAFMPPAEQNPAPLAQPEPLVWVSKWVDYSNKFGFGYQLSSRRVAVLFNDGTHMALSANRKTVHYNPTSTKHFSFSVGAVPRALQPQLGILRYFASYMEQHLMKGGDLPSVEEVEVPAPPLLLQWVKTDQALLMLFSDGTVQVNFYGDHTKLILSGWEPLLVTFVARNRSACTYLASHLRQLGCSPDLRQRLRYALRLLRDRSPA
T7 sequence (Q00535 whole entry): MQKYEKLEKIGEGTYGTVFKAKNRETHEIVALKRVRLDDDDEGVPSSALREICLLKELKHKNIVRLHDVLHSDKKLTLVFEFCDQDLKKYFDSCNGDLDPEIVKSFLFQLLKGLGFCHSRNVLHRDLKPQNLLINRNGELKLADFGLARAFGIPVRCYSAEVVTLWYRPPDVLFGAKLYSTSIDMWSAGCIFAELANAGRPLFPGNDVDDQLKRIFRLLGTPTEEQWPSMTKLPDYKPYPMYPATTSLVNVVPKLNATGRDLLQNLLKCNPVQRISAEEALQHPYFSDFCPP
T7 sequence (Q15078 whole entry partner): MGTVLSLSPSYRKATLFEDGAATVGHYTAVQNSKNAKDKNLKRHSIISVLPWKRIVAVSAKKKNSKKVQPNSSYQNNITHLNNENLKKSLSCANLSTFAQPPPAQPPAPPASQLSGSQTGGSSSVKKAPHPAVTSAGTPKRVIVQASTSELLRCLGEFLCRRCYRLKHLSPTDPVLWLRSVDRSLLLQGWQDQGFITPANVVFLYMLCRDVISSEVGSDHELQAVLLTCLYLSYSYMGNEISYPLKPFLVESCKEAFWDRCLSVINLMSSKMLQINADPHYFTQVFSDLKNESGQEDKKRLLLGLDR
MOP, sequence (P35372 whole entry): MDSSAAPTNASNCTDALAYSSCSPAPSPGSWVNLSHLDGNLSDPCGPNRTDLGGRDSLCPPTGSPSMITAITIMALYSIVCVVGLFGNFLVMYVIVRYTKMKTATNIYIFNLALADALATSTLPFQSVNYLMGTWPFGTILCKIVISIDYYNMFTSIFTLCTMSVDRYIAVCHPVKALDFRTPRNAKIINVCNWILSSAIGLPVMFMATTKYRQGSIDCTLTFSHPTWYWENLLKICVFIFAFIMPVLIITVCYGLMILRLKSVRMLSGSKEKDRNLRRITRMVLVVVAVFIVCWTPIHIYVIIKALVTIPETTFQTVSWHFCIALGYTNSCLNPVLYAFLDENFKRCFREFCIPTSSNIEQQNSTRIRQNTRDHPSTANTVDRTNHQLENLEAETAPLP
T3 sequence (P31749 whole entry): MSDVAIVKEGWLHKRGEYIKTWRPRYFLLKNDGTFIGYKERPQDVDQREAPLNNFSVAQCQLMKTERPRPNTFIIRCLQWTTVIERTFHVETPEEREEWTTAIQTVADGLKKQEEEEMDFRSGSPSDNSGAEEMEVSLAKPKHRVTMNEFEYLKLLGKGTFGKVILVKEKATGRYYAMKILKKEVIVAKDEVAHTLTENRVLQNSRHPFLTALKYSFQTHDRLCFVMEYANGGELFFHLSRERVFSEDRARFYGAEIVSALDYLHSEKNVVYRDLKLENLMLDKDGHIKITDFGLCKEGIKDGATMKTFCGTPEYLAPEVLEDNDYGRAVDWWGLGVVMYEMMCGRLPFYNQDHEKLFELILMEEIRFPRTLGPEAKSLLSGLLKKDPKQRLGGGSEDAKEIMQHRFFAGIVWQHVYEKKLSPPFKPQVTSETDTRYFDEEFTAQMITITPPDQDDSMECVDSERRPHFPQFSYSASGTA
T6 sequence (Q9P1W9 whole entry): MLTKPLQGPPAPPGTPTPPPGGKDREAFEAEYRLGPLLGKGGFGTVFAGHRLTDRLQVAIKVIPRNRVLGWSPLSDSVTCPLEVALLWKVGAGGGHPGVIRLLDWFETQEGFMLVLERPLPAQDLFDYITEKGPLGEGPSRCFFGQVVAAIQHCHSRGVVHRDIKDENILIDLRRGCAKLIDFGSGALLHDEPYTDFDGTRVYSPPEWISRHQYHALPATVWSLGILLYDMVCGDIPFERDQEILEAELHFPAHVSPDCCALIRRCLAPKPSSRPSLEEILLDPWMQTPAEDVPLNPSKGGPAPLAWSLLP
V1A, sequence (P37288 whole entry): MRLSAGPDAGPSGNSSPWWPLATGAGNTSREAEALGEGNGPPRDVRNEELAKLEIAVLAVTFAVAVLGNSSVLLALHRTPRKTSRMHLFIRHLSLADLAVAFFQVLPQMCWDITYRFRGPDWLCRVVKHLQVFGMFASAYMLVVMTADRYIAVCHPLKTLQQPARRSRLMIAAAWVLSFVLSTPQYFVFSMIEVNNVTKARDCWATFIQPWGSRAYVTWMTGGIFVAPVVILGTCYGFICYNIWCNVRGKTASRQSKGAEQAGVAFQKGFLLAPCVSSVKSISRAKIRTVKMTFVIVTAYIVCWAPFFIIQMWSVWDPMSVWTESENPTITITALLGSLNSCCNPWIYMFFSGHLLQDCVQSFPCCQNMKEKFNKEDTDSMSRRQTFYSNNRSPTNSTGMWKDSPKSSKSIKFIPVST
T4 sequence (P08069 31-1367): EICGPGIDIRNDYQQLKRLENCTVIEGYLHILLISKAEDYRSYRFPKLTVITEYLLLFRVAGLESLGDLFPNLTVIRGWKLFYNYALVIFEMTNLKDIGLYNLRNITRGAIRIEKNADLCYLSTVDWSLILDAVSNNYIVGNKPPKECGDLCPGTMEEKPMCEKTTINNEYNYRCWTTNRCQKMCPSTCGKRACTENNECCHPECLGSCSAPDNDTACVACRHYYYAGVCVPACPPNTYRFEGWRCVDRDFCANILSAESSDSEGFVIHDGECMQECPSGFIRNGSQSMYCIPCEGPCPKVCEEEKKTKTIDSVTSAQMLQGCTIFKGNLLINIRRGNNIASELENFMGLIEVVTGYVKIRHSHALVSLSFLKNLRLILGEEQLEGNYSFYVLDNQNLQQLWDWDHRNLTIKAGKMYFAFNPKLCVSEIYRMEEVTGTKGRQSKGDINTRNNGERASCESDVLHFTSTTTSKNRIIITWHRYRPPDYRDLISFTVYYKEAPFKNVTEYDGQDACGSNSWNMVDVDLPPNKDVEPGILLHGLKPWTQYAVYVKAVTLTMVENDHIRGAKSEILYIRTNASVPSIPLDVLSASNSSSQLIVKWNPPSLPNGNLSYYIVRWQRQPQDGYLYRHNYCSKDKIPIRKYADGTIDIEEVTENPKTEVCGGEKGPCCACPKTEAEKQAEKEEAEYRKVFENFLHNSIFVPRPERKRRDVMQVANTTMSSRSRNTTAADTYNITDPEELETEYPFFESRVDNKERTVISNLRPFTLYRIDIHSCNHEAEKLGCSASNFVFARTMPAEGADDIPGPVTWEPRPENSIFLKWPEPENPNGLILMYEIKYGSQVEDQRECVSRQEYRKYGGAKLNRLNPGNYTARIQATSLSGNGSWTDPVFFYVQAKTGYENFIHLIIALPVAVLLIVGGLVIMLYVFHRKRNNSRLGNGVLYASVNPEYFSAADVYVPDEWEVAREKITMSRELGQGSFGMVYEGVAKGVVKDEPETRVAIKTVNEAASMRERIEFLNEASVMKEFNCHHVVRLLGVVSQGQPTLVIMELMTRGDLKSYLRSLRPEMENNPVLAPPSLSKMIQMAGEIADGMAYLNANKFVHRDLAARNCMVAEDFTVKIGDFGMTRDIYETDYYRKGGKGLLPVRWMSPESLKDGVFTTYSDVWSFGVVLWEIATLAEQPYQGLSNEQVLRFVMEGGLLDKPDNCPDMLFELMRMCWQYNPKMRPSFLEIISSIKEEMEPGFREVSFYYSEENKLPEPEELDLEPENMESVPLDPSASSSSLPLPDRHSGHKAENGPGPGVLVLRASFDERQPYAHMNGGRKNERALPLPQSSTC
D2L, sequence (P14416 whole entry): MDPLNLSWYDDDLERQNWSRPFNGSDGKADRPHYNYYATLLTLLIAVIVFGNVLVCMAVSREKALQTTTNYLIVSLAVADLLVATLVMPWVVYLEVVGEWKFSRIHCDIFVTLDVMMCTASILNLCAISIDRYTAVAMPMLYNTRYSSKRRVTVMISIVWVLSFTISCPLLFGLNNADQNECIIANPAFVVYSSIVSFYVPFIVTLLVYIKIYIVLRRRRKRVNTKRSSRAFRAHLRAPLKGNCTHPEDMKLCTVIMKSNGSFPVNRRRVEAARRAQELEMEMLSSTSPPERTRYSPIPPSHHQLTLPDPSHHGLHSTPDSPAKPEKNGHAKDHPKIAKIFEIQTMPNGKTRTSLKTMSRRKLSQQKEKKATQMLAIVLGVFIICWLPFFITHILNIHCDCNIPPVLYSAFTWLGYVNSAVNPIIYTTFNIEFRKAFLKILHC

CC1CCCN1C(=O)c1nc(C(=O)NCC(C)(C)O)sc1-c1ccc(C(O)(C(F)(F)F)C(F)(F)F)c(Cl)c1Cl (stereo not drawn) [JNJ-61803534]
IC50 (human whole blood): 230 ± 110 nM | activity at 1 µM (cSRC(h)): 78% | activity at 10 µM (cSRC(h)): 80% | Tmax ([1]; 100 mg single oral dose, fed, n=9): 12 h | AUC(0-inf) [1, 5]: 8480 ng·h/mL | Cmax [1, 5]: 35.9 ng/mL | AUC(0-t) ([1]; both sexes, human, plasma, po, 10 mg, 10 mg single oral dose, fasted, n=6, mean (SD), read-out: AUC216h): 5180 ng·h/mL | half-life ([1]; both sexes, human, plasma, po, 10 mg, 10 mg single oral dose, fasted, n=6, mean (SD), read-out: t1/2 (converted)): 168 h | Tmax ([1]; both sexes, human, plasma, po, 10 mg, 10 mg single oral dose, fasted, n=6, read-out: tmax): 10 h | AUC(0-inf) [1, 6]: 28700 ng·h/mL | Cmax [1, 6]: 146 ng/mL | AUC(0-t) ([1]; both sexes, human, plasma, po, 30 mg, 30 mg single oral dose, fasted, n=6, mean (SD), read-out: AUC216h): 17400 ng·h/mL | half-life ([1]; both sexes, human, plasma, po, 30 mg, 30 mg single oral dose, fasted, n=6, mean (SD), read-out: t1/2 (converted)): 170 h | Tmax ([1]; both sexes, human, plasma, po, 30 mg, 30 mg single oral dose, fasted, n=6, read-out: tmax): 6.02 h | AUC(0-inf) [1, 7]: 100000 ng·h/mL | Cmax [1, 7]: 700 ng/mL | AUC(0-t) ([1]; both sexes, human, plasma, po, 100 mg, 100 mg single oral dose, fasted, n=9, mean (SD), read-out: AUC216h): 68400 ng·h/mL | AUC(0-t) ([1]; both sexes, human, plasma, po, 100 mg, 100 mg single oral dose, fasted, n=9, mean (SD), read-out: AUClast): 99100 ng·h/mL | half-life ([1]; both sexes, human, plasma, po, 100 mg, 100 mg single oral dose, fasted, n=9, mean (SD), read-out: t1/2 (converted)): 170 h | Tmax ([1]; both sexes, human, plasma, po, 100 mg, 100 mg single oral dose, fasted, n=9, read-out: tmax): 6 h | AUC(0-inf) [1, 8]: 90400 ng·h/mL | Cmax [1, 8]: 602 ng/mL | AUC(0-t) ([1]; both sexes, human, plasma, po, 100 mg, 100 mg single oral dose, fed, n=9, mean (SD), read-out: AUC216h): 61700 ng·h/mL | AUC(0-t) ([1]; both sexes, human, plasma, po, 100 mg, 100 mg single oral dose, fed, n=9, mean (SD), read-out: AUClast): 89700 ng·h/mL | half-life ([1]; both sexes, human, plasma, po, 100 mg, 100 mg single oral dose, fed, n=9, mean (SD), read-out: t1/2 (converted)): 168 h | Tmax ([1]; both sexes, human, plasma, po, 100 mg, 100 mg single oral dose, fed, n=9, read-out: tmax): 12 h | AUC(0-inf) [1, 9]: 201000 ng·h/mL | Cmax [1, 9]: 1810 ng/mL | AUC(0-t) ([1]; both sexes, human, plasma, po, 200 mg, 200 mg single oral dose, fasted, n=6, mean (SD), read-out: AUC216h): 154000 ng·h/mL | AUC(0-t) ([1]; both sexes, human, plasma, po, 200 mg, 200 mg single oral dose, fasted, n=6, mean (SD), read-out: AUClast): 200000 ng·h/mL | half-life ([1]; both sexes, human, plasma, po, 200 mg, 200 mg single oral dose, fasted, n=6, mean (SD), read-out: t1/2 (converted)): 164 h | Tmax ([1]; both sexes, human, plasma, po, 200 mg, 200 mg single oral dose, fasted, n=6, read-out: tmax): 6 h | half-life ([1]; both sexes, human, plasma, po, single oral doses 10 to 200 mg, read-out: plasma half-life, mean T1/2 values across the dose groups): 164 to 170 h | EC50 (MOP; agonist): > 12.5 µM | IC50 (MOP; antagonist): > 12.5 µM | EC50 (V1A; agonist): > 10 µM | IC50 (V1A; antagonist): > 10 µM | Caverage ([2]; 3 mg/kg BID): 702 nM | Ctrough ([2]; 3 mg/kg BID): 74 nM | Caverage ([2]; 10 mg/kg BID): 2032 nM | Ctrough ([2]; 10 mg/kg BID): 211 nM | Caverage ([2]; 30 mg/kg BID): 6909 nM | Ctrough ([2]; 30 mg/kg BID): 716 nM | Caverage ([2]; 60 mg/kg QD): 6909 nM | Ctrough ([2]; 60 mg/kg QD): 26 nM | Caverage ([2]; 100 mg/kg BID): 20321 nM | Ctrough ([2]; 100 mg/kg BID): 2106 nM | IC50 (PR): > 1500 nM | activity at 1 µM (PKBα(h)): 97% | activity at 10 µM (PKBα(h)): 95% | IC50 ([3]; read-out: IC50 (95% confidence intervals), IL-17A production): 19 nM | IC50 ([3]; read-out: IC50 (95% confidence intervals), IL-17F production): 22 nM | IC50 ([3]; read-out: IC50 (95% confidence intervals), IL-22 production): 27 nM | activity at 1 µM (IGF-1R(h)): 95% | activity at 10 µM (IGF-1R(h)): 106% | activity at 1 µM (Plk3(h)): 120% | activity at 10 µM (Plk3(h)): 114% | activity at 1 µM (Pim-2(h)): 102% | activity at 10 µM (Pim-2(h)): 107% | EC50 (D2L; agonist): > 12.5 µM | IC50 (D2L; antagonist): > 12.5 µM | activity at 1 µM (CDK5/p35(h)): 97% | activity at 10 µM (CDK5/p35(h)): 107% | AUC(0-t) ([4]; female): 376000 ng·h/mL | Cmax ([4]; female): 24200 ng/mL | AUC(0-t) ([4]; male): 310000 ng·h/mL | Cmax ([4]; male): 29600 ng/mL | NOAEL at 1 month ([4]; both sexes, 1 month oral, highest dose tested, read-out: no-observed-adverse-effect level (NOAEL)): 400 mg/kg/day | lymphocyte apoptosis in thymus (Sprague–Dawley rats): dose-dependent lymphocyte apoptosis in thymus was observed | EC50 (5HT2C; agonist): > 10 µM | IC50 (5HT2C; antagonist): > 10 µM | activity at 1 µM (JAK2(h)): 109% | activity at 10 µM (JAK2(h)): 105% | inhibition at 1 µM (M1 (h)): < 10% | inhibition at 10 µM (M1 (h)): < 10%
